#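 48-hour exposure; five concentrations; linearly interpolated endpoints. At the GI50, growth is halved.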 Activity calls are given as the source filed them. No stated cut-off is given here; in the data, active = GI50 up to about 1.1 µM and inactive = higher.
# What was measured:
# Assay in all cases: NCI-60 cell line screen, 48 h
# UACC-62 = test system: UACC-62
# HOP-62 = test system: HOP-62
# MDA-MB-231 = test system: MDA-MB-231
# NCI-H522 = test system: NCI-H522
# COLO 205 = test system: COLO 205
# SK-OV-3 = test system: SK-OV-3
# KM12 = test system: KM12
# Malme-3M = test system: Malme-3M
# K562 = test system: K562
# HCT-116 = test system: HCT-116
# UACC-257 = test system: UACC-257
# SNB-75 = test system: SNB-75
# PC-3 = test system: PC-3
# NCI/ADR-RES = test system: NCI/ADR-RES
# HT-29 = test system: HT-29
# OVCAR-4 = test system: OVCAR-4
# HOP-92 = test system: HOP-92
# CAKI-1 = test system: CAKI-1
# LOX IMVI = test system: LOX IMVI
# A549 = test system: A549
# IGROV-1 = test system: IGROV-1
# SF-268 = test system: SF-268
# NCI-H23 = test system: NCI-H23
# SF-539 = test system: SF-539
# T47D = test system: T47D
# OVCAR-3 = test system: OVCAR-3
# RXF 393 = test system: RXF 393
# DU-145 = test system: DU-145
# SK-MEL-2 = test system: SK-MEL-2
# SNB-19 = test system: SNB-19
# HCT-15 = test system: HCT-15
# OVCAR-8 = test system: OVCAR-8
# SN12C = test system: SN12C
# SW-620 = test system: SW-620
# NCI-H460 = test system: NCI-H460
# ACHN = test system: ACHN
# MDA-MB-435 = test system: MDA-MB-435
# 786-0 = test system: 786-0
# SK-MEL-5 = test system: SK-MEL-5
# SK-MEL-28 = test system: SK-MEL-28
# NCI-H226 = test system: NCI-H226
# SR = test system: SR
# OVCAR-5 = test system: OVCAR-5
# SF-295 = test system: SF-295
# HL-60 = test system: HL-60
# U-251 = test system: U-251
# TK-10 = test system: TK-10
# EKVX = test system: EKVX
# UO-31 = test system: UO-31
# MDA-N = test system: MDA-N
# Hs-578T = test system: Hs-578T
# MOLT-4 = test system: MOLT-4
# RPMI-8226 = test system: RPMI-8226
# BT-549 = test system: BT-549
# M14 = test system: M14
# A498 = test system: A498
# CCRF-CEM = test system: CCRF-CEM
# HCC 2998 = test system: HCC 2998
# MCF7 = test system: MCF7
smiles,measurement,setting,value
Nc1ncnc2c1ncn2C1OC(CO)C(O)C1N (stereo not given),GI50,UACC-62,> 100 µM (inactive)
same,GI50,HOP-62,> 100 µM (inactive)
same,GI50,MDA-MB-231,> 100 µM (inactive)
same,GI50,NCI-H522,> 100 µM (inactive)
same,GI50,COLO 205,> 100 µM (inactive)
same,GI50,SK-OV-3,> 100 µM (inactive)
same,GI50,KM12,> 100 µM (inactive)
same,GI50,Malme-3M,> 100 µM (inactive)
same,GI50,K562,> 100 µM (inactive)
same,GI50,HCT-116,> 100 µM (inactive)
same,GI50,UACC-257,> 100 µM (inactive)
same,GI50,SNB-75,> 100 µM (inactive)
same,GI50,PC-3,> 100 µM (inactive)
same,GI50,NCI/ADR-RES,> 100 µM (inactive)
same,GI50,HT-29,> 100 µM (inactive)
same,GI50,OVCAR-4,> 100 µM (inactive)
same,GI50,HOP-92,> 100 µM (inactive)
same,GI50,CAKI-1,> 100 µM (inactive)
same,GI50,LOX IMVI,> 100 µM (inactive)
same,GI50,A549,> 100 µM (inactive)
same,GI50,IGROV-1,> 100 µM (inactive)
same,GI50,SF-268,> 100 µM (inactive)
same,GI50,NCI-H23,> 100 µM (inactive)
same,GI50,SF-539,> 100 µM (inactive)
same,GI50,T47D,> 100 µM (inactive)
same,GI50,OVCAR-3,> 100 µM (inactive)
same,GI50,RXF 393,> 100 µM (inactive)
same,GI50,DU-145,> 100 µM (inactive)
same,GI50,SK-MEL-2,> 100 µM (inactive)
same,GI50,SNB-19,> 100 µM (inactive)
same,GI50,HCT-15,> 100 µM
same,GI50,OVCAR-8,> 100 µM (inactive)
same,GI50,SN12C,> 100 µM (inactive)
same,GI50,SW-620,> 100 µM (inactive)
same,GI50,NCI-H460,> 100 µM (inactive)
same,GI50,ACHN,> 100 µM (inactive)
same,GI50,MDA-MB-435,> 100 µM (inactive)
same,GI50,786-0,> 100 µM (inactive)
same,GI50,SK-MEL-5,> 100 µM (inactive)
same,GI50,SK-MEL-28,> 100 µM (inactive)
same,GI50,NCI-H226,> 100 µM (inactive)
same,GI50,SR,> 100 µM (inactive)
same,GI50,OVCAR-5,> 100 µM (inactive)
same,GI50,SF-295,> 100 µM (inactive)
same,GI50,HL-60,> 100 µM (inactive)
same,GI50,U-251,> 100 µM (inactive)
same,GI50,TK-10,> 100 µM (inactive)
same,GI50,EKVX,> 100 µM (inactive)
same,GI50,UO-31,> 100 µM (inactive)
same,GI50,MDA-N,> 100 µM (inactive)
same,GI50,Hs-578T,0.08 µM (active)
same,GI50,MOLT-4,> 100 µM (inactive)
same,GI50,RPMI-8226,> 100 µM (inactive)
same,GI50,BT-549,> 100 µM (inactive)
same,GI50,M14,> 100 µM (inactive)
same,GI50,A498,> 100 µM (inactive)
O=C1CCCCCCCCCCC1CN1CCOCC1 (stereo not given),GI50,UACC-62,> 100 µM (inactive)
same,GI50,HOP-62,> 100 µM (inactive)
same,GI50,MDA-MB-231,> 100 µM (inactive)
same,GI50,NCI-H522,> 100 µM (inactive)
same,GI50,COLO 205,> 100 µM (inactive)
same,GI50,SK-OV-3,> 100 µM (inactive)
same,GI50,KM12,> 100 µM (inactive)
same,GI50,Malme-3M,> 100 µM (inactive)
same,GI50,K562,> 100 µM (inactive)
same,GI50,HCT-116,> 100 µM (inactive)
same,GI50,UACC-257,> 100 µM (inactive)
same,GI50,CCRF-CEM,> 100 µM (inactive)
same,GI50,SNB-75,2.45 µM (inactive)
same,GI50,PC-3,> 100 µM (inactive)
same,GI50,OVCAR-4,> 100 µM (inactive)
same,GI50,HOP-92,> 100 µM (inactive)
same,GI50,A549,> 100 µM (inactive)
same,GI50,IGROV-1,> 100 µM (inactive)
same,GI50,SF-268,> 100 µM (inactive)
same,GI50,HCC 2998,> 100 µM (inactive)
same,GI50,NCI-H23,> 100 µM (inactive)
same,GI50,SF-539,> 100 µM (inactive)
same,GI50,T47D,> 100 µM (inactive)
same,GI50,OVCAR-3,> 100 µM (inactive)
same,GI50,RXF 393,> 100 µM (inactive)
same,GI50,DU-145,> 100 µM (inactive)
same,GI50,SNB-19,> 100 µM (inactive)
same,GI50,HCT-15,> 100 µM
same,GI50,OVCAR-8,> 100 µM (inactive)
same,GI50,SN12C,> 100 µM (inactive)
same,GI50,SW-620,> 100 µM (inactive)
same,GI50,ACHN,> 100 µM (inactive)
same,GI50,MDA-MB-435,> 100 µM (inactive)
same,GI50,786-0,> 100 µM (inactive)
same,GI50,SK-MEL-5,13.9 µM (inactive)
same,GI50,SK-MEL-28,> 100 µM (inactive)
same,GI50,NCI-H226,> 100 µM (inactive)
same,GI50,SR,> 100 µM (inactive)
same,GI50,OVCAR-5,> 100 µM (inactive)
same,GI50,MCF7,> 100 µM (inactive)
same,GI50,SF-295,> 100 µM (inactive)
same,GI50,HL-60,> 100 µM (inactive)
same,GI50,U-251,> 100 µM (inactive)
same,GI50,TK-10,> 100 µM (inactive)
same,GI50,EKVX,> 100 µM (inactive)
same,GI50,UO-31,> 100 µM (inactive)
same,GI50,MDA-N,> 100 µM (inactive)
same,GI50,Hs-578T,30.3 µM (inactive)
same,GI50,MOLT-4,66.1 µM (inactive)
same,GI50,RPMI-8226,> 100 µM (inactive)
same,GI50,BT-549,> 100 µM (inactive)
same,GI50,M14,> 100 µM (inactive)
O=C1Cc2c([nH]c3c(Cl)cccc23)-c2ccccc2N1,GI50,UACC-62,> 100 µM (inactive)
same,GI50,HOP-62,> 100 µM (inactive)
same,GI50,MDA-MB-231,> 100 µM (inactive)
same,GI50,NCI-H522,> 100 µM (inactive)
same,GI50,COLO 205,> 100 µM (inactive)
same,GI50,SK-OV-3,> 100 µM (inactive)
same,GI50,KM12,> 100 µM (inactive)
same,GI50,Malme-3M,> 100 µM (inactive)
same,GI50,K562,> 100 µM (inactive)
same,GI50,HCT-116,> 100 µM (inactive)
same,GI50,CCRF-CEM,> 100 µM (inactive)
same,GI50,SNB-75,> 100 µM (inactive)
same,GI50,PC-3,> 100 µM (inactive)
same,GI50,HT-29,> 100 µM (inactive)
same,GI50,OVCAR-4,> 100 µM (inactive)
same,GI50,HOP-92,95.7 µM (inactive)
same,GI50,LOX IMVI,> 100 µM (inactive)
same,GI50,A549,> 100 µM (inactive)
same,GI50,IGROV-1,> 100 µM (inactive)
same,GI50,SF-268,> 100 µM (inactive)
same,GI50,NCI-H23,> 100 µM (inactive)
same,GI50,SF-539,> 100 µM (inactive)
same,GI50,T47D,> 100 µM (inactive)
same,GI50,OVCAR-3,> 100 µM (inactive)
same,GI50,DU-145,> 100 µM (inactive)
same,GI50,SNB-19,> 100 µM (inactive)
same,GI50,HCT-15,> 100 µM
same,GI50,OVCAR-8,> 100 µM (inactive)
same,GI50,SN12C,> 100 µM (inactive)
same,GI50,SW-620,> 100 µM (inactive)
same,GI50,NCI-H460,> 100 µM (inactive)
same,GI50,ACHN,> 100 µM (inactive)
same,GI50,MDA-MB-435,> 100 µM (inactive)
same,GI50,786-0,> 100 µM (inactive)
same,GI50,SK-MEL-5,> 100 µM (inactive)
same,GI50,SK-MEL-28,> 100 µM (inactive)
same,GI50,NCI-H226,> 100 µM (inactive)
same,GI50,SR,> 100 µM (inactive)
same,GI50,OVCAR-5,> 100 µM (inactive)
same,GI50,MCF7,> 100 µM (inactive)
same,GI50,SF-295,> 100 µM (inactive)
same,GI50,HL-60,> 100 µM (inactive)
same,GI50,U-251,> 100 µM (inactive)
same,GI50,TK-10,> 100 µM (inactive)
same,GI50,UO-31,> 100 µM (inactive)
same,GI50,MDA-N,> 100 µM (inactive)
same,GI50,Hs-578T,87.3 µM (inactive)
same,GI50,MOLT-4,> 100 µM (inactive)
same,GI50,RPMI-8226,> 100 µM (inactive)
same,GI50,BT-549,> 100 µM (inactive)
same,GI50,M14,> 100 µM (inactive)
same,GI50,A498,> 100 µM (inactive)
